# Laboratory results as given in ChEMBL document CHEMBL6134788, “Development of naphthalimide hydrazide derivatives as potent antibacterial agents against carbapenem-resistant A. baumannii” (RSC Med Chem, 2024).
# Active and inactive are the calls of the source. The calls are words filed in the database; no cut-off is given here.
# Legend:
# Acinetobacter baumannii [1] = test: Antibacterial activity against multi-drug resistant Acinetobacter baumannii H72721 assessed as inhibition of bacterial growth incubated for 16 to 18 hrs by CLSI protocol based method; format: functional; details: time 16-18 hrs, read-out: MIC100
# Acinetobacter baumannii [2] = test: Antibacterial activity against multi-drug resistant Acinetobacter baumannii clinical isolate 3 assessed as inhibition of bacterial growth incubated for 16 to 18 hrs by CLSI protocol based method; format: functional; details: time 16-18 hrs, read-out: MIC100
# Acinetobacter baumannii [3] = test: Antibacterial activity against multi-drug resistant Acinetobacter baumannii clinical isolate 5 assessed as inhibition of bacterial growth incubated for 16 to 18 hrs by CLSI protocol based method; format: functional; details: time 16-18 hrs, read-out: MIC100
# Acinetobacter baumannii [4] = test: Antibacterial activity against multi-drug resistant Acinetobacter baumannii clinical isolate 9 assessed as inhibition of bacterial growth incubated for 16 to 18 hrs by CLSI protocol based method; format: functional; details: time 16-18 hrs, read-out: MIC100
# Acinetobacter baumannii [5] = test: Antibacterial activity against multi-drug resistant Acinetobacter baumannii clinical isolate 10 assessed as inhibition of bacterial growth incubated for 16 to 18 hrs by CLSI protocol based method; format: functional; details: time 16-18 hrs, read-out: MIC100
# Acinetobacter baumannii [6] = test: Antibacterial activity against multi-drug resistant Acinetobacter baumannii clinical isolate 11 assessed as inhibition of bacterial growth incubated for 16 to 18 hrs by CLSI protocol based method; format: functional; details: time 16-18 hrs, read-out: MIC100
# Acinetobacter baumannii [7] = test: Antibacterial activity against multi-drug resistant Acinetobacter baumannii 5-032 assessed as inhibition of bacterial growth incubated for 16 to 18 hrs by CLSI protocol based method; format: functional; details: time 16-18 hrs, read-out: MIC100
# Acinetobacter baumannii [8] = test: Antibacterial activity against multi-drug resistant Acinetobacter baumannii BC-5 assessed as inhibition of bacterial growth incubated for 16 to 18 hrs by CLSI protocol based method; format: functional; details: time 16-18 hrs, read-out: MIC100
# Acinetobacter baumannii [9] = test: Antibacterial activity against multi-drug resistant Acinetobacter baumannii Naval-17 assessed as inhibition of bacterial growth incubated for 16 to 18 hrs by CLSI protocol based method; format: functional; details: time 16-18 hrs, read-out: MIC100
# Acinetobacter baumannii [10] = test: Antibacterial activity against Acinetobacter baumannii ATCC 17978 assessed as inhibition of bacterial growth incubated for 16 to 18 hrs by CLSI protocol based method; format: functional; details: time 16-18 hrs, read-out: MIC100
# Acinetobacter baumannii [11] = test: Antibacterial activity against carbapenem-resistant Acinetobacter baumannii BAA 1605 assessed as inhibition of bacterial growth incubated 24 hrs in presence of amikacin by checkerboard method; format: functional
# Acinetobacter baumannii [12] = test: Antibacterial activity against carbapenem-resistant Acinetobacter baumannii BAA 1605 assessed as inhibition of bacterial growth incubated 24 hrs in presence of rifampicin by checkerboard method; format: functional
# Acinetobacter baumannii [13] = test: Antibacterial activity against carbapenem-resistant Acinetobacter baumannii BAA 1605 assessed as inhibition of bacterial growth by measuring amikacin MIC incubated 24 hrs by checkerboard method; format: functional
# Acinetobacter baumannii [14] = test: Antibacterial activity against carbapenem-resistant Acinetobacter baumannii BAA 1605 assessed as inhibition of bacterial growth by measuring levofloxacin MIC incubated 24 hrs by checkerboard method; format: functional
# Acinetobacter baumannii [15] = test: Antibacterial activity against carbapenem-resistant Acinetobacter baumannii BAA 1605 assessed as inhibition of bacterial growth by measuring rifampicin MIC incubated 24 hrs by checkerboard method; format: functional
# Acinetobacter baumannii [16] = test: Synergistic antibacterial activity against carbapenem-resistant Acinetobacter baumannii BAA 1605 assessed as inhibition of bacterial growth by measuring tobramycin MIC incubated 24 hrs by checkerboard method; format: functional
# Acinetobacter baumannii [17] = test: Antibacterial activity against carbapenem-resistant Acinetobacter baumannii BAA 1605 assessed as inhibition of bacterial growth by measuring fractional inhibitory concentration incubated 24 hrs in presence of polymyxin B by checkerboard method; format: functional
# Acinetobacter baumannii [18] = test: Antibacterial activity against carbapenem-resistant Acinetobacter baumannii BAA 1605 assessed as inhibition of bacterial growth by measuring fractional inhibitory concentration incubated 24 hrs in presence of rifampicin by checkerboard method; format: functional
# Acinetobacter baumannii [19] = test: Antibacterial activity against carbapenem-resistant Acinetobacter baumannii BAA 1605 assessed as levofloxacin MIC by measuring fractional inhibitory concentration incubated 24 hrs by checkerboard method relative to levofloxacin alone; format: functional
# Acinetobacter baumannii [20] = test: Antibacterial activity against carbapenem-resistant Acinetobacter baumannii BAA 1605 assessed as minocycline MIC by measuring fractional inhibitory concentration incubated 24 hrs by checkerboard method relative to minocycline alone; format: functional
# Acinetobacter baumannii [21] = test: Synergistic antibacterial activity against carbapenem-resistant Acinetobacter baumannii BAA 1605 assessed as reduction in bacterial growth measured within 24 hrs in presence of tobramycin by time-kill kinetics analysis; format: functional, organism-based
compound,measurement,setting,value
O=C(CCN1C(=O)c2cccc3cccc(c23)C1=O)NNc1ccc(Br)cc1,MIC,Acinetobacter baumannii [1],0.5 µg/mL
same,MIC,Acinetobacter baumannii [2],0.25 µg/mL
same,MIC,Acinetobacter baumannii [3],1 µg/mL
same,MIC,Acinetobacter baumannii [4],0.5 µg/mL
same,MIC,Acinetobacter baumannii [5],0.5 µg/mL
same,MIC,Acinetobacter baumannii [6],4 µg/mL
same,MIC,Acinetobacter baumannii [7],0.5 µg/mL
same,MIC,Acinetobacter baumannii [8],0.5 µg/mL
same,MIC,Acinetobacter baumannii [9],1 µg/mL
same,MIC,Acinetobacter baumannii [10],0.5 µg/mL
same,MIC,Acinetobacter baumannii [11],0.25 µg/mL
same,MIC,Acinetobacter baumannii [12],0.5 µg/mL
same,MIC,Acinetobacter baumannii [13],2 µg/mL
same,MIC,Acinetobacter baumannii [14],8 µg/mL
same,MIC,Acinetobacter baumannii [15],2 µg/mL
same,MIC,Acinetobacter baumannii [16],1 µg/mL
same,FIC,Acinetobacter baumannii [17],0.25
same,FIC,Acinetobacter baumannii [18],0.5
same,FIC,Acinetobacter baumannii [19],1
same,FIC,Acinetobacter baumannii [20],1
same,Activity,Acinetobacter baumannii [21],Active
